“And” between values parts separate entries of the source, which are not always exact repeats. Identical values can stand only once. Counter-ions that a name gives are not always drawn. Like-named read-outs stand apart in the source and are kept apart here.
Tests used:
[1] = system: guinea pig tracheal rings; experiment: Organ bath muscle force, TEA-induced contraction of guinea pig tracheal rings (Examples 1, 4, 13); settings: for relaxation of TEA-induced contraction: 10 mM TEA
Protocol: Epithelial denuded guinea pig tracheal rings were suspended in organ baths under 1 g resting tension with continuous digital recordings of muscle force. In separate studies, guinea pig airway smooth muscle cells were enzymatically dispersed and cultured.
Human muscle tissue was acquired from excess lung airways trimmed during surgery from healthy lung transplant donors. Acquired tissue was stored overnight at […]. Airway smooth muscle contractions measured ex vivo in organ baths were performed as previously described (Gallos et al., 2008; Gallos et al., 2009, Gallos et al., 2011; Gleason et al., 2010; Yim et al., 2011; Mitzuta et al., 2008). Closed guinea pig tracheal rings or strips of human airway smooth muscle (tracheal or main stem bronchus) were suspended in organ baths, which had 95% oxygen constantly perfusing through Dulbecco's Modified Eagle Medium. Rings were cut on the cartilaginous borders of the smooth muscle. The epithelial layer was dissected under microscopic assistance. Briefly, tissues were suspended in a water-jacketed (37° C.) 2-ml organ bath (Radnoti Glass Technology, Monrovia, Calif.) and attached to a Grass FT03 force transducer (Grass Telefactor, West Warwick, R.I.) coupled to a computer via BioPac hardware and Acqknowledge 7.3.3 software (Biopac Systems, Goleta, Calif.). Kreb's-Henseleit (KH) buffer was continuously bubbled with 95% oxygen and 5% carbon dioxide and tissues were allowed to equilibrate at 1 g (guinea pig) or 1.5 g (human) isotonic force for 1 hour with fresh KH buffer changes every 15 minutes.
Following equilibration, in guinea pig experiments, the capsaicin analog N-vanillylnonanamide (10 μM final) was added to the organ baths to first activate and then deplete nonadrenergic, noncholinergic nerves. […]. In experiments with human tissue, no vanillylnonanamide pretreatment was done. To avoid bias between treatment groups, tissues were contracted to individually calculated EC50 values for acetylcholine and tissues with similar Emax values were randomly assigned to treatments within individual experiments. Following extensive KH buffer changes (8-9 times) tissues were allowed to stabilize at isotonic resting tension (about 1.0 g). To remove confounding effects of other procontractile pathways, each bath received a complement of antagonists 20 minutes prior to subsequent contractile challenge. The antagonists included pyrilamine (10 μM; H1 histamine receptor antagonist), and tetrodotoxin (1 μM; blocker of endogenous cholinergic or C-fiber neuronal effects) in guinea pig experiments or pyrilamine and 10 μM MK571 (leukotriene receptor antagonist) in human tissue experiments. […]
Airway smooth muscle contractions measured ex vivo in organ baths were performed as set forth above. […]

[2] = system: human airway smooth muscle cells; experiment: FLIPR potentiometric dye membrane potential assay (Examples 9, 12); assay type: cell-based; settings: 10 μM
Protocol: To determine whether blockade of CaCCs or NKCCs induce membrane potential changes in cultured human airway smooth muscle cells, the FLIPR in vitro fluorescent dye assay (Molecular Devices) was used as described by Wafford et al. (2009). Briefly, human airway smooth muscle cells were grown to 100% confluence in 96-well black-walled plates and were washed with warmed (37° C.) normal-chloride buffer [consisting of (in mM) 130 sodium chloride, 2 CaCl2, 1 MgCl2, 10 D-glucose, and 10 HEPES, pH 7.4] four times. A stock solution (100% dye) of FLIPR blue dye (Molecular Devices) was prepared by reconstitution of 1 vial (125 mg) with 100 ml of the normal-chloride buffer (assay buffer). A 50% working stock was prepared by further diluting the reconstituted blue dye 1:1 with assay buffer and was used to load cells (90 μl/well) over 20 minutes at 37° C. All reagents were dissolved in assay buffer. Baseline fluorescence was measured for 3 minutes prior to the first control additions (assay buffer). […] The fluorescence produced by membrane potential change following solution additions was quantified after subtracting changes induced by assay buffer alone.

[3] = system: human airway smooth muscle cells; experiment: FLIPR membrane potentiometric dye assay (Example 21); assay type: cell-based
Protocol: Immortalized airway smooth muscle cell lines modified to stably express human telomerase reverse transcriptase were a kind gift from Dr. William Gerthoffer (University of Southern Alabama, Mobile, Ala.) prepared as described previously (Gosens et al., 2006) and grown in Dulbecco's Modified Eagle's Medium/F12 media (GIBCO, Grand Island, N.Y.), with 10% FBS and antibiotics.
Immortalized human airway smooth muscle cells were cultured on black-walled 96 well plates to 100% confluence, and were washed four times with warmed (37° C.) assay buffer of the following composition (in mM): NaCl 140, KCl 4.7, CaCl2 2.5, MgCl2 1.2, HEPES 11, D-glucose 10. A stock solution (100% dye) of FLIPR blue dye was prepared by reconstitution of 1 vial (125 mg) with 100 ml assay buffer. A 50% working stock was prepared by further diluting the reconstituted blue dye 1:1 with assay buffer and was used to load cells (90 μl/well) over 45 min at 37° C. in a humidified cell culture incubator (95% air/5% CO2). All reagents were dissolved in assay buffer. Fluorescence was measured with a Flex Station 3 (Molecular Devices) using an excitation wavelength of 530 nm, emission wavelength of 565 nm and a cutoff filter of 550 nm. Baseline fluorescence was measured every 2 seconds for 1 minute then for 2 minutes after injection of vehicle or compound of interest as indicated (using the Flexstation's 3 integrated injection capabilities).
Human airway smooth muscle cells were incubated with FLIPR membrane potentiometric dye to assess if the chloride channel blockers changed membrane potential at the cellular level. FLIPR fluorescence will increase with depolarization, and decrease with hyperpolarization. […] Therefore, chloride channel blockade, but not NKCC blockade, hyperpolarized human airway smooth muscle cells.

[4] = system: guinea pig tracheal rings; experiment: Relaxation of TEA contraction in guinea pig tracheal rings (Example 16, library screen); settings: 10 mM TEA
Protocol: (§1) Animal protocols were approved by the Columbia University Animal Care and Use Committee. Male Hartley guinea pigs weighing approximately 400 g were anesthetized with intraperitoneal injection of sodium pentobarbital (100 mg/kg). Trachea were removed and transferred to ice cold Krebs-Henseleit (KH) buffer of the following composition (in mM): NaCl 118, KCl 5.6, CaCl2 0.5, MgSO4 0.24, NaH2PO4 1.3, NaHCO3 25, glucose 5.6, pH 7.4. Epithelial-denuded tracheal rings were prepared using a dissecting microscope. Epithelium was removed by gently passing cotton fibers through the lumen of the tracheal rings. The rings were suspended in 4 mL-water jacketed organ baths (37° C.: Radnoti Glass Technology, Monrovia, Calif.) and connected to a Grass FT03 force transducer (Grass Telefactor, West Warwick, R.I.) using silk sutures. The transducers were coupled to the computer with BioPac hardware and data was collected using Acqknowledge 7.3.3 software (BioPac Systems, Goleta, Calif.). KH buffer was bubbled with a gas mixture of 95% oxygen and 5% carbon dioxide and buffer was exchanged every 15 minutes for 1 hour during equilibration of tracheal rings at 1 g resting tension. […].

[5] = system: guinea pig tracheal rings; experiment: Relaxation of potassium gluconate contraction in guinea pig tracheal rings; settings: 100 μM; 80 mM potassium gluconate
Protocol: as §1
Many chloride channel blockers are known to also stimulate potassium channels (Greenwood et al., 2007). Thus, we performed additional studies in the presence of a large extracellular concentration of potassium to ensure that our findings of compound 1 or 13 inhibiting a TEA-induced depolarizing contraction were not due to these compounds opening a potassium channel.

[6] = system: human airway smooth muscle; experiment: Relaxation of acetylcholine contraction in human airway smooth muscle strips; settings: 100 μM alone; EC50 acetylcholine
Protocol: Studies using de-identified human tissue were reviewed by the Columbia University Institutional Review Board and deemed not human subjects research. Tissues were obtained from healthy, normal organ donor discarded surgical waste subsequent to lung transplant surgery. Tissues were collected after transplant and placed in DMEM media (GIBCO) and bubbled overnight in 5% carbon dioxide and 95% oxygen at 4° C. The following morning, the smooth muscle tissue was carefully dissected under a dissecting microscope and the epithelium removed. The strips were anchored in the organ bath as described above using KH buffer of the same composition. The strips were allowed to equilibrate for 1 hour with buffer exchanges every 15 minutes and were treated with 10^−6 M tetrodotoxin, 10^−5 M pyrilamine, and 10^−5
M MK571. Strips were contracted with an EC50 dose of acetylcholine (Ach)
This experiment was then repeated with human airway smooth muscle to investigate clinical relevance as a model of bronchospasm in humans.

[7] = system: human airway smooth muscle cells; experiment: MQAE fluorescence assay of intracellular chloride; assay type: cell-based; settings: 10 mM TEA-acetate
Protocol: To determine whether blockade of CaCCs or NKCCs induce changes in intracellular chloride concentrations in human airway smooth muscle cells, the MQAE in vitro fluorescent dye assay (Invitrogen) was used. Briefly, human airway smooth muscle cells were grown to 100% confluence in 96-well black-walled plates. Cells were loaded overnight with 10 mM MQAE in serum-free basal cell culture medium (M199, Invitrogen) and were washed once with warmed (37° C.) normal-chloride buffer [consisting of (in mM) 130 sodium chloride, 2 CaCl2, 1 MgCl2, 10 D-glucose, and 10 HEPES, pH 7.4]. […] An increase in fluorescence represents decreased intracellular chloride (removal of halide quenching of MQAE) while decreased fluorescence represents increased intracellular chloride (enhanced halide quenching of MQAE).

[8] = system: guinea pig tracheal rings; experiment: Potentiation of isoproterenol relaxation of acetylcholine contraction, guinea pig tracheal rings; settings: Cavia porcellus, read-out: EC50 of isoproterenol-mediated relaxation of an acetylcholine contraction
Protocol: as §1
Therefore, we tested whether the chloride channel blockers or modulation of chloride flux could be used in combination with β-agonists to potentiate their effects. […]. Therefore, a combination of treatment with compound 13 and bumetanide potentiated the relaxation effect of isoproterenol.

rat lung slices = experiment: Airway lumen area in peripheral small airways of rat lung slices; settings: contractile agonists
Protocol: The measurement of airway contraction of a luminal area of small lung airways using the ex vivo rat lung slice method was performed as described (Perez-Zoghbi et al., 2007). The trachea was cannulated with an intravenous catheter, and after the chest cavity was opened, the collapsed lungs were reinflated with 1.3±0.1 ml of 2% agarose (low-gelling temperature) in Sigma-Hanks' Balanced Salt solution (sHBSS), followed by the injection of 0.2±0.1 of air to flush the agarose-sHBSS out of the airways and into the distal alveolar space. Subsequently, a warm (37° C.) solution of gelatin (type A, porcine skin, 300 bloom, 6% in sHBSS) was perfused through the intrapulmonary blood vessels via the pulmonary artery by injecting about 0.3 ml into the right ventricle. The warm agar and gelatin were gelled with cold sHBSS. A single lung lobe was removed and cut into serial sections of about 130 μm thick with a vibratome at about 4° C., starting at the lung periphery. Slices were maintained in DMEM (Invitrogen) at 37° C. and 10% CO2 for up to 3 days. At 37° C., the gelatin in the blood vessel lumen dissolved, leaving the blood vessel lumen empty. Lung slices were mounted in a custom-made perfusion chamber and held in place with a small sheet of nylon mesh. A second cover glass edged with silicone grease was placed over the lung slice. Perfusion of the lung slice was performed using a gravity-fed perfusion system. The volume of the chamber was about 100 μl with a perfusion rate of about 800 μl/min. […] Digital images were recorded in time lapse (30 frames/min). The area of the bronchiole and arteriole lumen was calculated, from each image, by pixel summing using custom-written software. Experiments were performed at room temperature.

## NS(=O)(=O)c1cc(C(=O)O)c(NCc2ccco2)cc1Cl [furosemide]
[1]; 300 μM furosemide
  relaxation of TEA-induced contraction: 77.6%

## O=c1[nH]c2cc(C(F)(F)F)ccc2n1-c1cc(C(F)(F)F)ccc1O [NS1619]
[2]
  membrane potential change (FLIPR): positive control for hyperpolarization
[3]
  membrane potential, continuous fluorescence recording (representative tracing): hyperpolarize

## O=C(O)c1cc(Cl)ccc1NCc1ccc(Cl)cc1 [compound 1, 5-chloro-2-((4-chlorobenzyl)amino)benzoic acid]
[4]; 100 μM
  percent of the TEA-induced contraction remaining at 15 minutes: 23.8±14.9%
  relaxed fraction of a TEA-induced contraction at 15 minutes after drug addition: 76.2%
[4]
  relaxation of TEA-induced contraction (screen of 20-compound chloride channel blocker library): most potently relax
[4]; representative tracing
  time to complete relaxation of TEA contraction: ≤ 15 min
[5]
  percent of potassium gluconate-induced contraction at 30 minutes: 61.46%±6.3 and 61.5%±6.3
[6]
  relaxation of acetylcholine contraction: 45.4%±6.3
[3]
  membrane potential, continuous fluorescence recording (representative tracing): hyperpolarize
[3]; 100 μM, n=12
  change in relative fluorescent units (membrane potential, FLIPR): −240.3+/−35 RFU

## CC(=O)[O-].CC[N+](CC)(CC)CC [TEA-acetate, tetraethylammonium (TEA)-acetate]
[7]
  intracellular chloride (MQAE fluorescence): decreased intracellular chloride concentrations

## CC(C)NCC(O)c1ccc(O)c(O)c1 (stereo not shown) [isoproterenol]
[8]; vehicle
  EC50: 5.99 nM
[8]; with 10 μM bumetanide
  EC50: 2.51 nM
[8]; with 50 μM compound 13
  EC50: 2.7 nM
[8]; with 50 μM compound 13 and 10 μM bumetanide
  EC50: 0.477 nM

## COC(=O)C1=C(C)NC(C)=C(C(=O)OC)C1c1ccccc1[N+](=O)[O-] [nifedipine]
[1]; 10 μM nifedipine
  relaxation of TEA-induced contraction: 111%

## O=C(O)c1cccnc1Nc1cccc(C(F)(F)F)c1 [water-soluble NFA, sodium salt of niflumic acid]
[1]; 10 μM, water soluble form compared to hydrophobic parent NFA
  potency at relaxing airway smooth muscle (muscle force at 60 minutes as a percent of initial force after TEA treatment): enhanced potency

## [Cl-].[K+] [KCl, potassium chloride]
Rat lung slices
  percent decrease in lumen area compared to rest: significant decrease in lumen area

Source: patent publication US20140024683A1, “CHLORIDE CHANNEL AND CHLORIDE TRANSPORTER MODULATORS FOR THERAPY IN SMOOTH MUSCLE DISEASES” (priority 2011, published 2014)
